Assay results published in patent US6380158B1, “Motilin homologs” (ZymoGenetics, Inc., priority 1997, dated 2002).

Experiments:
[1] = system: antral portion of the stomach; assay: Rat stomach contraction in vivo: topical application between two transducing crystals on the antrum; parameters: species or system Sprague-Dawley rats
From the text: Two male Sprague-Dawley rats, approximately 12 weeks old (Harlan, Indianapolis, Ind.) were anesthetized with urethane and their stomachs were exposed through a small abdominal incision. Two 2.4 mm transducing crystals (Sonometrics, Ontario, Canada) were placed on the antral portion of the stomach such that circular contractions could be monitored as a change in the distance between the two crystals. The crystals were attached with VETBOND TISSUE ADHESIVE (3M, St. Paul, Minn.).
The amplitude of the NE-induced decrease was approximately 50% of the acetylcholine-induced increase in distance. Both responses were transient.
A negative control of 10 μl of phosphate buffer solution (PBS) applied topically between the crystals had no effect.
A 14 amino acid zsig33 peptide (from amino acid residue 24 (Gly) to amino acid residue 37 (Gln) of SEQ ID NO: 2) was dissolved in PBS) and 10 μl was applied topically for a final concentration of 1 μg, 10 μg or 100 μg.

ob/ob mice = assay: Oral glucose challenge in ob/ob mice after oral gavage of the peptide (serum glucose levels); assay type: in vivo; settings: 100 μg orally, 30 minutes prior to oral glucose challenge
Method: Eight female ob/ob mice, approximately 6 weeks […] old (Jackson Labs, Bar Harbor, Me.) were adapted to a 4 hour daily feeding schedule for two weeks. After two weeks on the feeding schedule, the mice were give 100 μg of a 14 amino acid amino zsig33 peptide (from amino acid residue 24 (Gly) to amino acid residue 37 (Gln) of SEQ ID NO: 2) in 100 μl sterile 0.1% BSA by oral gavage, immediately after their eating period (post-prandially). Thirty minutes later, the mice were challenged orally with a 0.5 ml volume of 25% glucose. Retroorbital bleeds were done to determine serum glucose levels. Blood was drawn prior to zsig33 dosing, prior to oral glucose challenge, and at 1, 2, 4, and 20 hours following the glucose challenge.

[2] = 10 μl of 1 μM applied topically, anesthetized rats

## zsig33 peptide: 14 amino acid zsig33 peptide, from amino acid residue 24 (Gly) to amino acid residue 37 (Gln) of SEQ ID NO: 2 (GSSFLSPEHQRVQQ)
[1]; 1 μg in 10 μl PBS applied topically
  change in crystal distance (stomach contractions): sustained, rhythmic increase and decrease in crystal distance
[1]; 10 μg in 10 μl PBS applied topically
  change in crystal distance (rate and amplitude of contractions): enhanced responses in both rate and amplitude
[1]; 100 μg in 10 μl PBS applied topically
  change in crystal distance (rate and amplitude of contractions): enhanced responses in both rate and amplitude
ob/ob mice
  post-prandial glucose absorption (serum glucose levels): enhanced post-prandial glucose absorption

## NC[C@H](O)c1ccc(O)c(O)c1 [norepinephrine, reference compound]
[1]; [2]
  amplitude of the NE-induced decrease relative to the acetylcholine-induced increase in distance: approximately 50%
  change in the distance between the two crystals (circular contractions of the stomach): reduction in the distance between the two crystals
